The test system of one assay is hPMBC. Put plainly: Chymotrypsin-like ProteasomeGlo assay in hPBMC. The assay is classed as cell-based. Conditions: Homo sapiens; read-out: Pglo hPBMC. Put shortly:
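B cells isolated from human PBMC (buffy coats, density gradient, magnetic isolation). Cells treated with compound for 105 min at 37 °C, with staurosporine and DMSO included. Chymotrypsin-like proteasome activity read by luminescence with Suc-LLVY-Glo substrate to derive IC50.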

Assay [1] has as its target T1, β5 subunit of the human constitutive proteasome (CPS) (Homo sapiens, UniProt P28074).
T1 construct: purchased Boston Biochem E-360
Briefly: β5 inhibition assay, human constitutive proteasome (Suc-LLVY-AMC). The assay is classed as biochemical. Conditions: IC50 class, Suc-LLVY-AMC substrate. As to the method: The enzymatic activity of the β5 subunit of the human constitutive proteasome (CPS) is analyzed. In another assay, which differs from the assay of the human constitutive proteasome only in using the human immunoproteasome (IPS) the enzymatic activity of the β5 subunit of the human immunoproteasome (IPS) is analyzed. […] Inhibition is indicated as IC50 [nM] (“-”=not measured).

A further assay concerns HT-29 cells. Put plainly: CellTiter-Glo luminescent cell viability assay with HT-29 cells (72h incubation). Conditions: Homo sapiens, HT-29, HT29 cells, read-out: CTG HT29. The assay is classed as cell-based, human. In a few lines:
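400 cells per well in DMEM/10% FCS were dosed after 24 h and kept 72 h at 37 °C, 5% CO2. ATP-based luminescence (CellTiter-Glo) normalized to DMSO and 10 μM staurosporine controls; IC50 by dose-response fit.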
(In general: Cellular ATP, detected with luciferase, serves as a proxy for viable cell number.)

As to `CC(=O)N[C@H]1CC(=O)N2CCOC(CCOc3ccc(C)c(c3)CNC(=O)[C@H](CCc3ccccc3)NC1=O)C2` (stereo partly drawn) [Compound 258, N-((9S,12S)-5^4-methyl-8,11,14-trioxo-9-phenethyl-4-oxa-7,10-diaza-1(2,4)-morpholina-5(1,3)-benzenacyclotetradecaphane-12-yl)acetamide], the IC50 (with hPMBC; in assay [1]; in the assay on HT-29 cells) was 100 to 500 nM throughout.
As for `COc1ccc2cc1CNC(=O)[C@H](CCc1ccccc1)NC(=O)[C@@H](NC(C)=O)CC(=O)N1CCCC(CCO2)C1` (stereo partly drawn) [Compound 211, N-((9S,12S)-5^4-methoxy-8,11,14-trioxo-9-phenethyl-4-oxa-7,10-diaza-1(3,1)-piperidina-5(1,3)-benzenacyclotetradecaphane-12-yl)acetamide], the IC50 (in the assay with hPMBC; in assay [1]; with HT-29 cells) was 100 to 500 nM each time.
Consider `Cc1ccc2cc1CNC(=O)[C@H](CCc1ccccc1)NC(=O)CCCCC(=O)N1CCCC(CCO2)C1` (stereo partly drawn) [Compound 16, (9S)-5^4-methyl-9-phenethyl-4-oxa-7,10-diaza-1(3,1)-piperidina-5(1,3)-benzenacyclohexadecaphane-8,11,16-trione], for which the IC50 was < 100 nM in assay [1] and 100 to 500 nM in the assay with HT-29 cells.
Consider `Cc1ccc2cc1CNC(=O)[C@H](CCc1ccccc1)NC(=O)[C@@H](NC(=O)c1ccccc1)CC(=O)N1CCCC(CCO2)C1` (stereo partly drawn) [Compound 26, N-((9S,12S)-5^4-methyl-8,11,14-trioxo-9-phenethyl-4-oxa-7,10-diaza-1(3,1)-piperidina-5(1,3)-benzenacyclotetradecaphane-12-yl)benzamide], for which the IC50 (in assay [1]; with HT-29 cells) was < 100 nM in each case.
For `Cc1ccc2cc1CNC(=O)[C@H](CCc1ccccc1)NC(=O)[C@@H](NC(=O)CCc1cccc(F)c1)CC(=O)N1CCCC(CCO2)C1` (stereo partly drawn) [Compound 25, 3-(3-fluorophenyl)-N-((9S,12S)-5^4-methyl-8,11,14-trioxo-9-phenethyl-4-oxa-7,10-diaza-1(3,1)-piperidina-5(1,3)-benzenacyclotetradecaphane-12-yl)propanamide], the IC50 (in assay [1]; with HT-29 cells) was < 100 nM in each case.
With `Cc1ccc2cc1CNC(=O)[C@H](Cc1ccccc1)NC(=O)CCC(=O)N1CCCC(CCO2)C1` (stereo partly drawn) [Compound 79, (9S)-9-benzyl-5^4-methyl-4-oxa-7,10-diaza-1(3,1)-piperidina-5(1,3)-benzenacyclotetradecaphane-8,11,14-trione], the IC50 in assay [1] was in the range of 100 to 500 nM; with HT-29 cells, 1000 to 5000 nM.
The corresponding values for `Cc1ccc2cc1CNC(=O)[C@H](CCc1ccccc1)NC(=O)[C@@H](Nc1ccccn1)CC(=O)N1CCCC(CCO2)C1` (stereo partly drawn) [Compound 36, (9S,12S)-5^4-methyl-9-phenethyl-12-(pyridin-2-ylamino)-4-oxa-7,10-diaza-1(3,1)-piperidina-5(1,3)-benzenacyclotetradecaphane-8,11,14-trione] are < 100 nM and 100 to 500 nM.
Taken in the same sequence, the figures for `Cc1ccc2cc1CNC(=O)[C@H](CCc1ccccc1)NC(=O)[C@@H](Nc1nc3ccccc3[nH]1)CC(=O)N1CCCC(CCO2)C1` (stereo partly drawn) [Compound 45, (9S,12S)-12-((1H-benzo[d]imidazol-2-yl)amino)-5^4-methyl-9-phenethyl-4-oxa-7,10-diaza-1(3,1)-piperidina-5(1,3)-benzenacyclotetradecaphane-8,11,14-trione] were < 100 nM and 100 to 500 nM.
For the compound `Cc1ccc2cc1CNC(=O)[C@H](CCc1ccccc1)NC(=O)[C@@H](NC(=O)c1ccccn1)CC(=O)N1CCCC(CCO2)C1` (stereo partly drawn) [Compound 40, N-((9S,12S)-5^4-methyl-8,11,14-trioxo-9-phenethyl-4-oxa-7,10-diaza-1(3,1)-piperidina-5(1,3)-benzenacyclotetradecaphane-12-yl)picolinamide], the IC50 (in assay [1]; in the assay with HT-29 cells) was < 100 nM each time.
For `Cc1ccc2cc1CNC(=O)[C@H](CCc1ccccc1)NC(=O)[C@@H](N1C(=O)CCC1=O)CC(=O)N1CCCC(CCO2)C1` (stereo partly drawn) [Compound 43, (9S,12S)-12-(2,5-dioxopyrrolidin-1-yl)-5^4-methyl-9-phenethyl-4-oxa-7,10-diaza-1(3,1)-piperidina-5(1,3)-benzenacyclotetradecaphane-8,11,14-trione], the IC50 (in assay [1]; with HT-29 cells) was < 100 nM throughout.
As to `Cc1ccc2cc1CNC(=O)[C@H](C)NC(=O)CCC(=O)N1CCCC(CCO2)C1` (stereo partly drawn) [Compound 78, (9S)-5^4,9-dimethyl-4-oxa-7,10-diaza-1(3,1)-piperidina-5(1,3)-benzenacyclotetradecaphane-8,11,14-trione], the IC50 with hPMBC was in the range of 500 to 1000 nM; in assay [1], 1000 to 5000 nM.
Regarding `Cc1ccc2cc1CNC(=O)[C@H](CCc1ccccc1)NC(=O)[C@@H](NS(C)(=O)=O)CC(=O)N1CCCC(CCO2)C1` (stereo partly drawn) [Compound 37, N-((9S,12S)-5^4-methyl-8,11,14-trioxo-9-phenethyl-4-oxa-7,10-diaza-1(3,1)-piperidina-5(1,3)-benzenacyclotetradecaphane-12-yl)methanesulfonamide], the IC50 (in assay [1]; in the assay with HT-29 cells) was < 100 nM throughout.
As for `Cc1ccc2cc1CNC(=O)C(CCc1cccnc1)NC(=O)CCC(=O)N1CCCC(CCO2)C1` (stereo not drawn) [Compound 51, 5^4-methyl-9-(2-(pyridin-3-yl)ethyl)-4-oxa-7,10-diaza-1(3,1)-piperidina-5(1,3)-benzenacyclotetradecaphane-8,11,14-trione], the IC50 in assay [1] was < 100 nM; in the assay with HT-29 cells, 1000 to 5000 nM.
The corresponding values for `Cc1ccc2cc1CNC(=O)[C@H](CCc1ccccc1)NC(=O)[C@@H](NC(=O)c1ccncc1)CC(=O)N1CCCC(CCO2)C1` (stereo partly drawn) [Compound 42, N-((9S,12S)-5^4-methyl-8,11,14-trioxo-9-phenethyl-4-oxa-7,10-diaza-1(3,1)-piperidina-5(1,3)-benzenacyclotetradecaphane-12-yl)isonicotinamide] are < 100 nM and < 100 nM.
The corresponding values for `CCOC(=O)N[C@H]1CC(=O)N2CCCC(CCOc3ccc(C)c(c3)CNC(=O)[C@H](CCc3ccccc3)NC1=O)C2` (stereo partly drawn) [Compound 39, ethyl ((9S,12S)-5^4-methyl-8,11,14-trioxo-9-phenethyl-4-oxa-7,10-diaza-1(3,1)-piperidina-5(1,3)-benzenacyclotetradecaphane-12-yl)carbamate] are < 100 nM and < 100 nM.
Regarding `CC(=O)N[C@H]1CC(=O)N2CCCC(CCOc3ccc(C)c(c3)CNC(=O)C(CCc3cnccn3)NC1=O)C2` (stereo partly drawn) [Compound 564, N-((12S)-5^4-methyl-8,11,14-trioxo-9-(2-(pyrazin-2-yl)ethyl)-4-oxa-7,10-diaza-1(3,1)-piperidina-5(1,3)-benzenacyclotetradecaphane-12-yl)acetamide], the IC50 in the assay with hPMBC and in the assay on HT-29 cells was < 100 nM each time.
With `Cc1ccc2cc1CNC(=O)[C@H](CCc1ccccc1)NC(=O)CCC(=O)N1CCCC(CCO2)C1` (stereo partly drawn) [Compound 13, (9S)-5^4-methyl-9-phenethyl-4-oxa-7,10-diaza-1(3,1)-piperidina-5(1,3)-benzenacyclotetradecaphane-8,11,14-trione], the IC50 in assay [1] was < 100 nM; with HT-29 cells it was 500 to 1000 nM.

These data come from patent US20240415819A1, “MACROCYCLIC COMPOUNDS AS PROTEASOME SUBUNIT BETA TYPE-5 INHIBITORS” (Lead Discovery Center GmbH, priority 2021, published 2024).
